The subject of experiment [1] is A. baumannii (6 clinical isolates). Nature of the experiment: Antibacterial activity on representative drug-resistance bacteria: number of clinical isolates per MIC value. The class given is cell-based. The conditions noted are these: A. baumanni (N = 6). The procedure:
(§1) The in vitro antibacterial activity was evaluated by measuring MIC90 (ug/mL) of each of the compounds of Examples 1 to 68, which is defined as the lowest concentration of an antibiotic that will inhibit the visible growth of 90% of microorganisms after incubation as compared with a control group to which the antibiotic is not treated. MIC90 values were measured by the broth microdilution method developed by the Clinical and Laboratory Standards Institute (CLSI) (see CLSI M7-A5, Methods for Dilution Antimicrobial Susceptibility Test for Bacteria that Grow Aerobically-Fifth Edition (2000): CLSI, Villanova, Pa.).
(§2) Test compounds each (the cephalosporin derivative compounds prepared in Examples 1 to 68) were dissolved in DMSO at the concentration of 10,240 ug/mL, were diluted by two fold with DMSO, and then were diluted by twenty fold with sterilized distilled water. The final concentration in the antibacterial activity test was in the range of […] to 128 ug/mL, and the final concentration of DMSO used as an adjuvant was 2.5% (V/V).

Experiment [2] has as its system K. pneumoniae (38 clinical isolates). The experiment is described as above. The class given is cell-based. To be noted: K. pneumomiae (N = 38). How it is done: as §1, §2
The subject of experiment [3] is P. aeruginosa (16 clinical isolates). The experiment is described as above. The class given is cell-based. To be noted: P. aeruginosa (N = 16). How it is done:
as §1, §2

Experiment [4] concerns A. baumannii 46. Nature of the experiment: In vitro antibacterial activity test (broth microdilution). The class given is cell-based. To be noted: Acinetobacter baumannii, 46, A. baumannii 46. The gist of the method:
(§3)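 MIC90 (ug/mL) determined by CLSI broth microdilution against clinical isolates, defined as lowest concentration inhibiting visible growth of 90% of organisms after incubation versus untreated control. Compounds tested from 0.0626 to 128 ug/mL final, with 2.5% (V/V) DMSO.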

Experiment [5] concerns A. baumannii 49. Described as above. The class given is cell-based. The conditions noted are these: Acinetobacter baumannii, 49, A. baumannii 49. The gist of the method: as §3
The test system of experiment [6] is A. baumannii 52. The description is as above. The class given is cell-based. The conditions noted are these: Acinetobacter baumannii, 52. In outline: as §3
Experiment [7] deals with A. calcoaceticus ATCC15473. The experiment is described as above. The class given is cell-based. To be noted: Acinetobacter calcoaceticus, ATCC15473, A. calcoaceticus ATCC15473. The gist of the method: as §3
Experiment [8] deals with E. cloacae β19. The experiment is described as above. Format: cell-based. The conditions noted are these: Enterobacter cloacae. In outline:
as §3

Experiment [9] deals with E. coli AG100. The experiment is described as above. To be noted: Escherichia coli, AG100. Format: cell-based. The gist of the method:
as §3

Experiment [10] has as its system E. coli β4. Described as above. Format: cell-based. To be noted: Escherichia coli. The gist of the method: as §3
Experiment [11] concerns K. pneumoniae 2011E. The experiment is described as above. To be noted: Klebsiella pneumoniae, 2011E. The class given is cell-based. In outline: as §3
Experiment [12] has as its system K. pneumoniae β10. The experiment is described as above. Format: cell-based. The conditions noted are these: Klebsiella pneumoniae. In outline:
as §3

The subject of experiment [13] is K. pneumoniae β11. The experiment is described as above. To be noted: Klebsiella pneumoniae. Format: cell-based. In outline:
as §3

Experiment [14] has as its system K. pneumoniae β13. Described as above. The class given is cell-based. The conditions noted are these: Klebsiella pneumoniae. In outline:
as §3

Experiment [15] relates to K. pneumoniae β14. The experiment is described as above. To be noted: Klebsiella pneumoniae. The class given is cell-based. The gist of the method:
as §3

In experiment [16] the test system is K. pneumoniae β9. The description is as above. To be noted: Klebsiella pneumoniae. The class given is cell-based. The gist of the method:
as §3

For experiment [17], the system named is M. catarrhalis 2524. Described as above. The class given is cell-based. To be noted: Moraxella catarrhalis, 2524. The gist of the method: as §3
Experiment [18] relates to P. aeruginosa 1912E. The experiment is described as above. To be noted: Pseudomonas aeruginosa, 1912E. Format: cell-based. The gist of the method:
as §3

In experiment [19] the test system is P. aeruginosa 37. The experiment is described as above. The class given is cell-based. The conditions noted are these: Pseudomonas aeruginosa, 37, P. aeruginosa 37. In outline:
as §3

In experiment [20] the test system is P. aeruginosa 40. The experiment is described as above. The conditions noted are these: Pseudomonas aeruginosa, 40. Format: cell-based. In outline:
as §3

Experiment [21] has as its system P. aeruginosa 43. The description is as above. The conditions noted are these: Pseudomonas aeruginosa, 43. The class given is cell-based. The gist of the method:
as §3

For experiment [22], the system named is P. aeruginosa 6065Y. The description is as above. The class given is cell-based. To be noted: Pseudomonas aeruginosa, 6065Y. In outline:
as §3

Experiment [23] relates to P. aeruginosa R1023. Nature of the experiment: In vivo efficacy, whole-body infected mouse model, Ceftazidime-resistant bacteria.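 For Survival rate: each column one dose of 5 10 20 or 40 mg/kg given sc at 1 h and 4 h.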 Also on record: species or system ICR mouse. To be noted: for Survival rate: subcutaneous 1 h and 4 h after infection, P. aeruginosa R1023 (2 × 10^6 CFU/mouse), four days. The procedure:
Pharmaceutical efficacy of the cephalosporin derivative compounds according to the present invention was evaluated in a whole-body infected mouse model. Tables 3 and 4 show survival rate and ED50 values for the two compounds with excellent antibacterial activity with regard to an infected mouse by a drug-sensitive bacteria and a drug-resistant bacteria.
Test animals: 3 week old male ICR mouse, weight 18˜22 g; 5 mice/group.
Lab conditions: Temperature of 23±2° C.; humidity of 55±20%.
Administration method: Inducing whole-body infection by bacterial solution followed by subcutaneous injection (0.2 mL) after 1 hour and 4 hours.
Test method: Cultured bacteria were diluted with 0.9% NaCl to prepare a bacterial solution having a concentration that is 5 to 10 times of […]. 0.5 mL of bacterial solution was injected through abdominal cavity to induce whole-body infection. Test compounds were administered in four different amounts, which were designed considering in vitro MIC values of the test bacteria. After 1 hour and 4 hours, the four different amounts of the test compounds were subcutaneously administered. Survival rates were measured for four days and ED50 values were calculated according to the Probit method.

Data on five compounds can be found in patent US9630977B2, “Cephalosporin derivatives and pharmaceutical compositions thereof” (Legochem Biosciences, Inc., priority 2011, dated 2017).

≈ marks a conversion by molar mass, not a printed value.

Take `Cn1c(N)c(NC(=O)NCCN)c[n+]1CC1=C(C(=O)O)N2C(=O)[C@@H](NC(=O)/C(=N\OC(C)(C)C(=O)[O-])c3nsc(N)n3)[C@H]2SC1` [CXA-101, reference compound]: the “number of clinical isolates that showed the respective MIC value” (“number” below) was determined as 6 in experiment [1] (MIC >16 ug/mL); 1 in experiment [2] (MIC 1 ug/mL); 1 in experiment [2] (MIC 2 ug/mL); 1 in experiment [2] (MIC 16 ug/mL); 35 in experiment [2] (MIC >16 ug/mL); 4 in experiment [3] (MIC 2 ug/mL). The figures for the “number” value in [3] (MIC 4 ug/mL), in experiment [3] (MIC 8 ug/mL) and in experiment [3] (MIC >16 ug/mL) were 4, 1 and 7, respectively.

As for `CC(C)(O/N=C(\C(=O)N[C@@H]1C(=O)N2C(C(=O)[O-])=C(/C=C/C[n+]3cnc(N)c(NC(=O)CCCN)c3)CSC12)c1nsc(N)n1)C(=O)O` (some centres unmarked) [Compound 65], the MIC90 was 64 µg/mL (≈ 92.8 µM) in experiment [4]; 64 µg/mL (≈ 92.8 µM) in experiment [5]; 64 µg/mL (≈ 92.8 µM) in experiment [6]; 0.5 µg/mL (≈ 0.725 µM) in [7]; 32 µg/mL (≈ 46.4 µM) in experiment [8]; less than 0.0625 µg/mL in [9]. Besides, the MIC90 is 0.125 µg/mL (≈ 0.181 µM) in experiment [10]; 0.25 µg/mL (≈ 0.362 µM) in experiment [11]; 1 µg/mL (≈ 1.45 µM) in [12]; more than 128 µg/mL in experiment [13]; 2 µg/mL (≈ 2.9 µM) in experiment [14]; 2 µg/mL (≈ 2.9 µM) in experiment [15]. In addition, the MIC90 was 16 µg/mL (≈ 23.2 µM) in [16]; less than 0.0625 µg/mL in experiment [17]; 2 µg/mL (≈ 2.9 µM) in experiment [18]; 32 µg/mL (≈ 46.4 µM) in [19]; 4 µg/mL (≈ 5.8 µM) in [20]; more than 128 µg/mL in [21]. Also, the MIC90 in experiment [22] turned out to be 32 µg/mL (≈ 46.4 µM).

On to `CC(C)(O/N=C(\C(=O)N[C@@H]1C(=O)N2C(C(=O)[O-])=C(/C=C/C[n+]3cnc(N)c(NC(=O)CCN)c3N)CSC12)c1csc(N)n1)C(=O)O` (some centres unmarked) [Compound 66], for which the MIC90 in experiment [4] was 16 µg/mL (≈ 23.2 µM); in experiment [5] it was more than 128 µg/mL; in experiment [6] it was more than 128 µg/mL; in [7], 2 µg/mL (≈ 2.9 µM); in [8] it was 0.25 µg/mL (≈ 0.362 µM); in experiment [9] it was 0.25 µg/mL (≈ 0.362 µM). For the same compound, the MIC90 turned out to be 0.25 µg/mL (≈ 0.362 µM) in [10]; 0.5 µg/mL (≈ 0.725 µM) in experiment [11]; 0.5 µg/mL (≈ 0.725 µM) in experiment [12]; 16 µg/mL (≈ 23.2 µM) in experiment [13]; 0.5 µg/mL (≈ 0.725 µM) in [14]; 1 µg/mL (≈ 1.45 µM) in [15]. Also, the MIC90 in [16] is 0.5 µg/mL (≈ 0.725 µM); in experiment [17], less than 0.0625 µg/mL; in experiment [18], 4 µg/mL (≈ 5.8 µM); in experiment [19] it was 16 µg/mL (≈ 23.2 µM); in [20], 8 µg/mL (≈ 11.6 µM); in experiment [21] it was more than 128 µg/mL. In addition, in experiment [22], the MIC90 amounted to 16 µg/mL (≈ 23.2 µM).

In the case of `CC(C)(O/N=C(\C(=O)N[C@@H]1C(=O)N2C(C(=O)[O-])=C(/C=C/C[n+]3cnc(N)c(NC(=O)CCCN)c3N)CSC12)c1nc(N)sc1Cl)C(=O)O` (some centres unmarked) [Compound 67], the MIC90 in [4] is 64 µg/mL (≈ 86.7 µM); in experiment [5] it was 64 µg/mL (≈ 86.7 µM); in [6], 64 µg/mL (≈ 86.7 µM); in [7], 4 µg/mL (≈ 5.42 µM); in experiment [8] it was 32 µg/mL (≈ 43.3 µM); in [9], 0.5 µg/mL (≈ 0.677 µM). Besides, the MIC90 was 2 µg/mL (≈ 2.71 µM) in [10]; 2 µg/mL (≈ 2.71 µM) in [11]; 4 µg/mL (≈ 5.42 µM) in experiment [12]; 8 µg/mL (≈ 10.8 µM) in experiment [13]; 2 µg/mL (≈ 2.71 µM) in experiment [14]; 4 µg/mL (≈ 5.42 µM) in experiment [15]. Further, the MIC90 in experiment [16] was 8 µg/mL (≈ 10.8 µM); in experiment [17], less than 0.0625 µg/mL; in experiment [18] it was 4 µg/mL (≈ 5.42 µM); in experiment [19], 16 µg/mL (≈ 21.7 µM); in [20], 16 µg/mL (≈ 21.7 µM); in experiment [21] it was more than 128 µg/mL. In experiment [22], the MIC90 was determined as 32 µg/mL (≈ 43.3 µM).

`C[C@@H](O)[C@H]1C(=O)N2C(C(=O)O)=C(S[C@@H]3CN[C@H](CNS(N)(=O)=O)C3)[C@H](C)[C@H]12` [Doripenem, reference compound]: the “number” value in experiment [1] (MIC 16 ug/mL) was determined as 1; in experiment [1] (MIC >16 ug/mL), 5; in experiment [2] (MIC 0.0625 ug/mL), 1; in experiment [2] (MIC 0.125 ug/mL), 6; in experiment [2] (MIC 0.25 ug/mL), 3; in experiment [2] (MIC 0.5 ug/mL), 5. Further, the “number” value in [2] (MIC 1 ug/mL) is on record as 6; in experiment [2] (MIC 2 ug/mL), 5; in experiment [2] (MIC 8 ug/mL) it was 4; in experiment [2] (MIC 16 ug/mL), 2; in [2] (MIC <0.0625 ug/mL) it was 6; in experiment [3] (MIC 4 ug/mL), 1. For the same compound, the “number” value turned out to be 1 in experiment [3] (MIC 8 ug/mL), 5 in experiment [3] (MIC 16 ug/mL) and 9 in [3] (MIC >16 ug/mL). In addition, the ED50 in [23] (Pseudomonas aeruginosa, sc, Probit method, subcutaneous, mouse infected by Ceftazidime-resistant P. aeruginosa R1023) was 28 mg/kg. Besides, the Survival rate is 0% in [23] (administered amount 5 mg/kg), 20% in experiment [23] (administered amount 10 mg/kg), 20% in experiment [23] (administered amount 20 mg/kg) and 80% in [23] (administered amount 40 mg/kg).

Broadly, the MIC90 is an inhibitory concentration at the 90% level, which refers to growth in some studies and to a panel of isolates in others. By ED50 is commonly meant the midpoint of the dose-response relation. Read a low ED50 as an effect at a small dose.
